In ChEMBL document CHEMBL2346633, “Design, synthesis, and binding mode prediction of 2-pyridone-based selective CB2 receptor agonists” (Bioorg Med Chem, 2013):
pIC50, pKi: −log10 of the molar value.

What was measured:
Cannabinoid receptor 2 [1] = target: T1, Cannabinoid receptor 2 (Homo sapiens, UniProt P34972); experiment: Displacement of [H3]-CP-55940 from human recombinant CB2 receptor expressed in CHO cells; type: cell-based
Cannabinoid receptor 1 = Cannabinoid receptor 1 (Homo sapiens, UniProt P21554); experiment: Displacement of [H3]-CP-55940 from human recombinant CB1 receptor expressed in CHO cells; type: cell-based
Chain of Cannabinoid receptor 1 (P21554 whole entry, looked up): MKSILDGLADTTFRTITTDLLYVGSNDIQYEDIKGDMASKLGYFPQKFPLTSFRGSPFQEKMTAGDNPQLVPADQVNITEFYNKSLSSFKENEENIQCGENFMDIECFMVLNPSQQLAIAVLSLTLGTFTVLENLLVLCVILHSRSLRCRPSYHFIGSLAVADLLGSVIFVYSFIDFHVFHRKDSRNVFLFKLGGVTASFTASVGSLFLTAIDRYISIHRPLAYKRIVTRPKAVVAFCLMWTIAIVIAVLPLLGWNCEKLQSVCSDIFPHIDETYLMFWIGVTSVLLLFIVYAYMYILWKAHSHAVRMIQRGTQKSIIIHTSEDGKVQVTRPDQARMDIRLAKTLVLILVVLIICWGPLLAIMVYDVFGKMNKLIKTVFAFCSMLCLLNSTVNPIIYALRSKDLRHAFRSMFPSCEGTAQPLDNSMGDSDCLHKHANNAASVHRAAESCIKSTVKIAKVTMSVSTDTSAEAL

Cannabinoid receptor 2 [2] = target: T1, Cannabinoid receptor 2; experiment: Agonist activity at human recombinant CB2 receptor expressed in CHO cells assessed as inhibition of forskolin-induced accumulation of cAMP; type: functional, cell-based
Homo sapiens = species: Homo sapiens; experiment: Selectivity ratio of Ki for human recombinant CB1 receptor to Ki for human recombinant CB2 receptor

T1 sequence (P34972 whole entry): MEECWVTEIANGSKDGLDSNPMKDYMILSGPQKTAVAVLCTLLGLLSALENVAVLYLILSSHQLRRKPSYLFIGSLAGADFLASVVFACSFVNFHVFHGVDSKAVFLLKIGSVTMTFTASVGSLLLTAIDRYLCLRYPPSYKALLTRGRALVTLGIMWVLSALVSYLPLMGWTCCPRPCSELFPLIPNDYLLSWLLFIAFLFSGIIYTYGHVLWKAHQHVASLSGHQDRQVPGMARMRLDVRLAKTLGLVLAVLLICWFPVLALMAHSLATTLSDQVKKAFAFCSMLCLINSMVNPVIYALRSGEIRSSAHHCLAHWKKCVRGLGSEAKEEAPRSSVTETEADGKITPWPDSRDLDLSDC

| Structure (SMILES) | pKi (Cannabinoid receptor 2 [1]) | pKi (Cannabinoid receptor 1) | pIC50 (Cannabinoid receptor 2 [2]) | Ratio Ki (Homo sapiens) |
| --- | --- | --- | --- | --- |
| CCCCn1ccc(C)c(Oc2nc3ccccc3o2)c1=S | 6.63 | – | – | – |
| CCCCn1c(C)c(C)cc(NC(=O)c2ccccc2F)c1=O | 7.06 | 6.21 | – | – |
| CCCCn1c(C)c(C)cc(NC(=O)c2ccc3ccccc3c2)c1=O | 6.11 | < 5.30 | – | – |
| CCCCn1cc(C)cc(Oc2nc3ccccc3o2)c1=S | 6.63 | – | – | – |
| CCN1C(=O)C(Sc2nc3ccccc3o2)c2ccccc2C1C (stereo unspecified) | 7.38 | < 5.30 | – | – |
| CCCCn1c(C)c(C)cc(NC(=O)c2ccccc2C)c1=O | – | 6.41 | 7.89 | – |
| CCCCn1c(C)c(C)cc(Oc2nc3ccccc3o2)c1=O | 6.01 | – | – | – |
| CCn1c(C)c(C)cc(Oc2nc3ccccc3o2)c1=S | 5.41 | – | – | – |
| CCCCn1c(C)c(C)cc(NC(=O)c2cccc3ccccc23)c1=O | 7.92 | 7.72 | – | 1.6 |
| CCCCn1c(C)c(C)cc(NC(=O)Cc2ccccc2)c1=O | 5.88 | < 5.30 | – | – |
| CN1CCCCC1Cn1cc(C(=O)c2cc([N+](=O)[O-])ccc2I)c2ccccc21 (stereo unspecified) | – | – | – | 80 |
| CCCCn1c(C)c(C)cc(NC(=O)c2ccc(C)cc2)c1=O | 7.14 | 6.07 | – | – |
| CCCCn1c(C)c(C)cc(NC(=O)c2cccc(C)c2)c1=O | 7.38 | 6.46 | – | – |
| CCCn1c(C)c(C)cc(Oc2nc3ccccc3o2)c1=S | 6.56 | – | – | – |
| CCCCCn1c(C)c(C)cc(Oc2nc3ccccc3o2)c1=S | 6.67 | – | – | – |
| CCCCn1c(C)c(C)cc(NC(=O)c2ccccc2Cl)c1=O | – | 6.41 | – | – |
| CCCCn1c(C)c(C)cc(NC(=O)c2ccccc2)c1=O | 7.05 | 5.86 | – | – |
| CCCCn1cccc(Oc2nc3ccccc3o2)c1=S | 6.31 | – | – | – |
| CCCCn1c(C)c(C)cc(NC(C)=O)c1=O | < 5.30 | < 5.30 | – | – |
| CCCCCCn1c(C)c(C)cc(Oc2nc3ccccc3o2)c1=S | 6.22 | – | – | – |
